The test system of data set [1] is Enterovirus 71 Hn2 strain (EV71-Hn2). In kind it is cell-based.
The conditions of data set [2]: female, Balb/c, mouse, in vivo, ip.
Data set [3] has as its system murine hepatitis coronavirus A59 strain (MHV-A59). In kind it is cell-based.
In data set [4] the test system is Ectromelia Virus Moscow strain (ECTV-MOS strain). The arrangement: species or system Balb/c mice. The conditions noted are these: mouse, in vivo, ip.

Values joined by “and” are separate entries in the source; they are usually repeats but may differ in a detail not shown here. Equal entries are not always repeated.

With `Nc1ccn(C[C@@H](CO)OCP(=O)(O)O)c(=O)n1` [Cidofovir], the “effect on the titers of enterovirus (EV71)” value in data set [1] is on record as “no effects”. In data set [2], the “Case-Fatality Rate (%)” value was 0%, the “Death Number” value amounted to 0, the “Survival Number” value is 15 and the “Survival Rate (%)” value turned out to be 100%. Moreover, the “effect on the titers of coronavirus (MHV)” value in data set [3] is given as “no effects”. In data set [4], the “Case-Fatality Rate (%)” value was 6.67% and 13.33%; the “Death Number” value was 1 and 2; the “Survival Number” value is 14 and 13; the “Survival Rate (%)” value was 86.67% and 93.33%.

The values are drawn from patent publication US20200237901A1 (priority 2016, published 2020).
